Measurements: US10131652B2, “Pyrimidinyloxy benzene derivatives as herbicides” (E. I. DU PONT DE NEMOURS AND COMPANY, priority 2014, dated 2018)
Like-named read-outs stand apart in the source and are kept apart here.

Assays:
Test in all cases: Test E pre-/postemergence plant response
Assay type in all cases: in vivo
[1] = system: wild buckwheat (Polygonum convolvulus); details: Fallopia convolvulus, scale 0 to 100, read-out: Plant response rating, Buckwheat, Wild; for pest or weed control at 16 g/ha: 16 g ai/ha; for pest or weed control at 31 g/ha: 31 g ai/ha; for pest or weed control at 62 g/ha: 62 g ai/ha; for pest or weed control at 125 g/ha: 125 g ai/ha
In short: (§1)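 Visual scores on a 0–100 scale (100 = complete control) were assigned against untreated controls 7–21 days after treatment in a controlled environment. Compounds, formulated with solvent plus surfactant, were applied to pre-emergence silt-loam sowings or to 1- to 4-leaf plants (2–18 cm) in potting medium.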

[2] = system: canarygrass (Phalaris minor); details: scale 0 to 100, read-out: Plant response rating, Canarygrass; for pest or weed control at 16 g/ha: 16 g ai/ha; for pest or weed control at 31 g/ha: 31 g ai/ha; for pest or weed control at 62 g/ha: 62 g ai/ha; for pest or weed control at 125 g/ha: 125 g ai/ha
In short: as §1

[3] = system: windgrass (Apera spica-venti); details: scale 0 to 100, read-out: Plant response rating, Windgrass; for pest or weed control at 16 g/ha: 16 g ai/ha; for pest or weed control at 62 g/ha: 62 g ai/ha; for pest or weed control at 125 g/ha: 125 g ai/ha
In short: as §1

[4] = system: spring wheat (Triticum aestivum); details: scale 0 to 100, read-out: Plant response rating, Wheat, Spring; for plant injury at 16 g/ha: 16 g ai/ha; for plant injury at 62 g/ha: 62 g ai/ha; for plant injury at 125 g/ha: 125 g ai/ha
In short: as §1

[5] = system: deadnettle (henbit deadnettle, Lamium amplexicaule); details: scale 0 to 100, read-out: Plant response rating, Deadnettle; for pest or weed control at 16 g/ha: 16 g ai/ha; for pest or weed control at 31 g/ha: 31 g ai/ha; for pest or weed control at 62 g/ha: 62 g ai/ha; for pest or weed control at 125 g/ha: 125 g ai/ha
In short: as §1

[6] = system: oilseed rape (Brassica napus); details: scale 0 to 100, read-out: Plant response rating, Oilseed Rape; for plant injury at 16 g/ha: 16 g ai/ha; for plant injury at 31 g/ha: 31 g ai/ha; for plant injury at 62 g/ha: 62 g ai/ha; for plant injury at 125 g/ha: 125 g ai/ha
In short: as §1

[7] = system: winter barley (Hordeum vulgare); details: scale 0 to 100, read-out: Plant response rating, Barley, Winter; for plant injury at 16 g/ha: 16 g ai/ha; for plant injury at 31 g/ha: 31 g ai/ha; for plant injury at 62 g/ha: 62 g ai/ha; for plant injury at 125 g/ha: 125 g ai/ha
In short: as §1

[8] = system: downy bromegrass (Bromus tectorum); details: scale 0 to 100, read-out: Plant response rating, Bromegrass, Downy; for pest or weed control at 16 g/ha: 16 g ai/ha; for pest or weed control at 31 g/ha: 31 g ai/ha; for pest or weed control at 62 g/ha: 62 g ai/ha; for pest or weed control at 125 g/ha: 125 g ai/ha
In short: as §1

wild oat (Avena fatua) = details: scale 0 to 100, read-out: Plant response rating, Oat, Wild; for pest or weed control at 16 g/ha: 16 g ai/ha; for pest or weed control at 31 g/ha: 31 g ai/ha; for pest or weed control at 62 g/ha: 62 g ai/ha; for pest or weed control at 125 g/ha: 125 g ai/ha
In short: as §1

[9] = system: field poppy (Papaver rhoeas); details: scale 0 to 100, read-out: Plant response rating, Field Poppy; for pest or weed control at 16 g/ha: 16 g ai/ha; for pest or weed control at 31 g/ha: 31 g ai/ha; for pest or weed control at 62 g/ha: 62 g ai/ha; for pest or weed control at 125 g/ha: 125 g ai/ha
In short: as §1

[10] = system: chamomile (scentless chamomile, Matricaria inodora); details: Tripleurospermum inodorum, post-emergence, Postemergence, scale 0 to 100, read-out: Plant response rating, Chamomile
In short: as §1

[11] = post-emergence, 31 g ai/ha, Postemergence

Question: What does the source list for Fc1cccc(Oc2ncc(Cl)cn2)c1-c1cc(C(F)(F)F)on1 [Compound 168, 5-chloro-2-[2-[5-(trifluoromethyl)-3-isoxazolyl]-3-fluorophenoxy]pyrimidine]?
Answer: pest or weed control at 16 g/ha ([1]; post-emergence, Postemergence): 65%; pest or weed control at 31 g/ha ([1]; post-emergence, Postemergence): 95%; pest or weed control at 62 g/ha ([1]; post-emergence, Postemergence): 95%; pest or weed control at 125 g/ha ([1]; post-emergence, Postemergence): 100%; pest or weed control at 16 g/ha ([1]; pre-emergence, Preemergence): 0%; pest or weed control at 31 g/ha ([1]; pre-emergence, Preemergence): 65%; pest or weed control at 62 g/ha ([1]; pre-emergence, Preemergence): 100%; pest or weed control at 125 g/ha ([1]; pre-emergence, Preemergence): 100%; pest or weed control at 16 g/ha ([2]; post-emergence, Postemergence): 15%; pest or weed control at 31 g/ha ([2]; post-emergence, Postemergence): 15%; pest or weed control at 62 g/ha ([2]; post-emergence, Postemergence): 25%; pest or weed control at 125 g/ha ([2]; post-emergence, Postemergence): 55%; pest or weed control at 16 g/ha ([2]; pre-emergence, Preemergence): 15%; pest or weed control at 31 g/ha ([2]; pre-emergence, Preemergence): 15%; pest or weed control at 62 g/ha ([2]; pre-emergence, Preemergence): 100%; pest or weed control at 125 g/ha ([2]; pre-emergence, Preemergence): 100%; pest or weed control at 16 g/ha ([3]; post-emergence, Postemergence): 10%; pest or weed control at 31 g/ha [3, 11]: 15%; pest or weed control at 62 g/ha ([3]; post-emergence, Postemergence): 25%; pest or weed control at 125 g/ha ([3]; post-emergence, Postemergence): 40%; pest or weed control at 16 g/ha ([3]; pre-emergence, Preemergence): 0%; pest or weed control at 62 g/ha ([3]; pre-emergence, Preemergence): 100%; pest or weed control at 125 g/ha ([3]; pre-emergence, Preemergence): 100%; plant injury at 16 g/ha ([4]; post-emergence, Postemergence): 10%; plant injury at 31 g/ha [4, 11]: 20%; plant injury at 62 g/ha ([4]; post-emergence, Postemergence): 25%; plant injury at 125 g/ha ([4]; post-emergence, Postemergence): 40%; plant injury at 16 g/ha ([4]; pre-emergence, Preemergence): 15%; plant injury at 62 g/ha ([4]; pre-emergence, Preemergence): 20%; plant injury at 125 g/ha ([4]; pre-emergence, Preemergence): 30%; pest or weed control at 16 g/ha ([5]; post-emergence, Postemergence): 20%; pest or weed control at 31 g/ha ([5]; post-emergence, Postemergence): 55%; pest or weed control at 62 g/ha ([5]; post-emergence, Postemergence): 75%; pest or weed control at 125 g/ha ([5]; post-emergence, Postemergence): 80%; pest or weed control at 16 g/ha ([5]; pre-emergence, Preemergence): 10%; pest or weed control at 31 g/ha ([5]; pre-emergence, Preemergence): 50%; pest or weed control at 62 g/ha ([5]; pre-emergence, Preemergence): 80%; pest or weed control at 125 g/ha ([5]; pre-emergence, Preemergence): 100%; plant injury at 16 g/ha ([6]; post-emergence, Postemergence): 70%; plant injury at 31 g/ha ([6]; post-emergence, Postemergence): 85%; plant injury at 62 g/ha ([6]; post-emergence, Postemergence): 95%; plant injury at 125 g/ha ([6]; post-emergence, Postemergence): 100%; plant injury at 16 g/ha ([6]; pre-emergence, Preemergence): 10%; plant injury at 31 g/ha ([6]; pre-emergence, Preemergence): 40%; plant injury at 62 g/ha ([6]; pre-emergence, Preemergence): 65%; plant injury at 125 g/ha ([6]; pre-emergence, Preemergence): 100%; plant injury at 16 g/ha ([7]; post-emergence, Postemergence): 5%; plant injury at 31 g/ha ([7]; post-emergence, Postemergence): 10%; plant injury at 62 g/ha ([7]; post-emergence, Postemergence): 10%; plant injury at 125 g/ha ([7]; post-emergence, Postemergence): 15%; plant injury at 16 g/ha ([7]; pre-emergence, Preemergence): 0%; plant injury at 31 g/ha ([7]; pre-emergence, Preemergence): 5%; plant injury at 62 g/ha ([7]; pre-emergence, Preemergence): 25%; plant injury at 125 g/ha ([7]; pre-emergence, Preemergence): 40%; pest or weed control at 16 g/ha ([8]; post-emergence, Postemergence): 5%; pest or weed control at 31 g/ha ([8]; post-emergence, Postemergence): 15%; pest or weed control at 62 g/ha ([8]; post-emergence, Postemergence): 25%; pest or weed control at 125 g/ha ([8]; post-emergence, Postemergence): 35%; pest or weed control at 16 g/ha ([8]; pre-emergence, Preemergence): 0%; pest or weed control at 31 g/ha ([8]; pre-emergence, Preemergence): 10%; pest or weed control at 62 g/ha ([8]; pre-emergence, Preemergence): 10%; pest or weed control at 125 g/ha ([8]; pre-emergence, Preemergence): 40%; pest or weed control at 16 g/ha (wild oat (Avena fatua); post-emergence, Postemergence): 5%; pest or weed control at 31 g/ha (wild oat (Avena fatua); post-emergence, Postemergence): 10%; pest or weed control at 62 g/ha (wild oat (Avena fatua); post-emergence, Postemergence): 40%; pest or weed control at 125 g/ha (wild oat (Avena fatua); post-emergence, Postemergence): 65%; pest or weed control at 16 g/ha (wild oat (Avena fatua); pre-emergence, Preemergence): 10%; pest or weed control at 31 g/ha (wild oat (Avena fatua); pre-emergence, Preemergence): 10%; pest or weed control at 62 g/ha (wild oat (Avena fatua); pre-emergence, Preemergence): 35%; pest or weed control at 125 g/ha (wild oat (Avena fatua); pre-emergence, Preemergence): 50%; pest or weed control at 16 g/ha ([9]; post-emergence, Postemergence): 55%; pest or weed control at 31 g/ha ([9]; post-emergence, Postemergence): 85%; pest or weed control at 62 g/ha ([9]; post-emergence, Postemergence): 100%; pest or weed control at 125 g/ha ([9]; post-emergence, Postemergence): 100%; pest or weed control at 16 g/ha ([9]; pre-emergence, Preemergence): 80%; pest or weed control at 31 g/ha ([9]; pre-emergence, Preemergence): 100%; pest or weed control at 62 g/ha ([9]; pre-emergence, Preemergence): 100%; pest or weed control at 125 g/ha ([9]; pre-emergence, Preemergence): 100%; pest or weed control at 16 g/ha ([10]; 16 g ai/ha): 5%; pest or weed control at 31 g/ha ([10]; 31 g ai/ha): 5%; pest or weed control at 62 g/ha ([10]; 62 g ai/ha): 10%; pest or weed control at 125 g/ha ([10]; 125 g ai/ha): 10%
